Converted amounts (≈) assume the structure as drawn. Where two headings read alike, the source gives them in different places.
Columns and labels:
[1] = for concentration of methionine remaining in the supernatant (mother liquor): buffer, 18 h
Protocol: To the cell free broth containing the solubilized L-methionine, sulfuric acid (96% w/w) was added and its pH lowered to […], the isoelectric point of L-methionine. […] The slurry was then stored overnight at 4° C. to allow for precipitation of the crystals. The slurry was then centrifuged to collect the methionine crystals.
At pH of 1.68, cells from the slurried fermenter broth were separated first by centrifugation followed by filtration through a 0.45 micron filter. The pH of the filtrate was then raised to 5.75, the isoelectric point of methionine by addition of 50% NaOH, resulting in formation of L-methionine crystals. The slurry was placed in a refrigerator at 4° C. for 18 hours to allow for additional crystallization of methionine. The crystals were then removed by centrifugation and filtration and further dried on a lyophilizer. The dried crystals were harvested from the lyophilizer. […] Crystals were collected by centrifugation at 4° C. by using a pre-chilled centrifuge.
For optimal recovery of methionine, solids from the acidified slurry above were removed by centrifugation and filtration and the pH of the recovered filtrate was raised to 5.6 using NaOH. […] This solution was placed again in the refrigerator at 4° C. for 18 hours to allow for formation of additional methionine crystals. Crystals formed after 18 hours at 4° C. were filtered and dried in a lyophilizer.

physchem = details: thermodynamic from solid
Protocol: (§1) The pH of the slurry was measured to be 5.54. A well-mixed sample of this slurry was drawn, and solids removed from the sample by centrifugation followed by filtration.
(§2) From a well-mixed sample of this slurry, solids were removed as before by centrifugation and filtration. […] At this point, the whole cells were separated from the methionine and fermentation solubles by centrifugation.
(§3) Methionine was added to the fermentation broth at a concentration of 56 g/L. In addition to soluble methionine, the slurry had insoluble methionine, microbial cells and components of fermentation media. 50% NaOH was added to the slurry at a concentration equal to 0.5 eq. weight of methionine. […] A sample of the slurry was removed and filtered as previously described.
(§4) Methionine was added to fermentation broth at a concentration of 77 g/L. The slurry was then heated to 70° C. without pH adjustment. This slurry was then filtered through a 0.45 micron filter in a heated filtration unit to remove the whole cells and other insoluble fermentation broth components. The filtrate was collected and analyzed for methionine.
(§5) Concentrated sulfuric acid (H2SO4, 96% w/w) was added in a concentration equal to 1 equivalent weight of methionine to the slurry, lowering the pH of the slurry to 2.49. Methionine concentration was measured from a sample after centrifugation and filtration as previously described.
(§6) H2SO4 (96% w/w) at a concentration of 1 equivalent weight of methionine was added to this slurry, decreasing the pH of the broth to 2.39.

[2] = soluble methionine concentration in the filtrate of L-methionine-supplemented fermentation broth slurry, by HPLC after centrifugation and filtration
Protocol: as §1, §2, §3, §4, §5, §6

[3] = 25° C., Merck Index 12th Edition 1996; cited from earlier work

concentration of methionine remaining in the supernatant (mother liquor) ([1]; pH 5.6) | concentration of methionine remaining in the supernatant (mother liquor) ([1]; pH 5.75) | concentration of methionine remaining in the supernatant ([1]; pH 5.95) | solubility (physchem; 22 °C, pH 5.54, plasma or biological fluid) | solubility (physchem; pH 2.39, plasma or biological fluid) | solubility (physchem; pH 2.49, plasma or biological fluid) | solubility (physchem; pH 8.92, plasma or biological fluid) | solubility (physchem; pH 9.36, plasma or biological fluid) | solubility of methionine in fermentation broth ([2]; 22° C., no pH adjustment) | solubility of methionine in the solution versus pH 9.36 ([2]; NaOH 2 equivalent weight, pH 10.22) | solubility of L-methionine versus lower NaOH levels ([2]; NaOH 2.5 equivalent weight, pH 12.53) | concentration of methionine in the filtrate ([2]; slurry with 56 g/L methionine, NaOH 1 eq weight, pH 9.38) | additional methionine solubilized ([2]; slurry with 56 g/L methionine, NaOH 1.5, 2 and 2.5 eq wt, pH 9.82, 10.47 and 12.23) | concentration of methionine in the filtrate ([2]; slurry with 77 g/L methionine, heated to 70° C., no pH adjustment, 0.45 micron filter) | SMILES | water solubility [3]
39500 µg/mL | 47200 µg/mL | 33000 µg/mL | 38 mg/mL (≈ 255 mM) | 55 mg/mL (≈ 369 mM) | 75 mg/mL (≈ 503 mM) | 58 mg/mL (≈ 389 mM) | 78 mg/mL (≈ 523 mM) | 38 mg/mL | unchanged | did not further increase | 56000 µg/mL | No additional methionine was solubilized | 74600 µg/mL | CSCC[C@H](N)C(=O)O [L-methionine] | –
– | – | – | – | – | – | – | – | – | – | – | – | – | – | CSCCC(N)C(=O)O (racemic) [DL-methionine] | 33.81 mg/mL (≈ 227 mM)

Reference: US8338141B2, “Methionine recovery processes” (Novus International, Inc., priority 2003, dated 2012)
